Source: patent publication US9597407B2, “Targeted antimicrobial moieties” (C3 Jian, Inc., priority 2009, dated 2017)
Entries after “also recorded” stand apart in the source; their conditions may differ.

Experiments:
[1] = system: microorganisms; assay: Morphology, biofilm and growth disruption by peptides (Table 5); assay type: cell-based; set-up: key: A: Peptide aggregates; B: Less hyphal formation; Clumps; Diffuse clumps and small polyps; F: Diffuse growth; H: Thin; I: Growth inhibition; Microcolony formation; Rippled; Small polyps; Thick; W: Halo formation on top, microlonies on bottom
From the text: In certain embodiments peptides that induce alterations in phenotype or other biological activities can also be used as antimicrobial effector moieties.

[2] = system: bacteria; assay: Binding of targeting peptides to microorganisms (Table 3); details: peptide binding in aqueous buffers that varied depending on peptide solubility; preferably 1x PBS
[3] = system: microorganisms; assay: Peptide activities: binding, antimicrobial, growth or phenotype altering (Table 8)
From the text: In certain embodiments, peptides described herein can have multiple activities. Thus for example, a peptide can have both binding/targeting activity and antimicrobial activity. Such peptides can be used, e.g., in a chimeric construct, for any or all of these properties. Thus, for example, a peptide designated “B” in Table 8 can be used as a targeting peptide. If it is also designated G or M it can also be used for antimicrobial activity.

Row | Substance | Organism, effect (morphology, biofilm and growth disruption) ([1]; B. subtilis) | Organism, effect (morphology, biofilm and growth disruption) ([1]; C. jeikeium) | Organism, effect (morphology, biofilm and growth disruption) ([1]; C. jejuni) | Organism, effect (morphology, biofilm and growth disruption) ([1]; M. luteus) | Organism, effect (morphology, biofilm and growth disruption) ([1]; MRSA) | Organism, effect (morphology, biofilm and growth disruption) ([1]; S. pneumoniae) | Target(s) (microorganisms bound by the targeting peptide) [2] | Activities [3] | Organism, effect (morphology, biofilm and growth disruption) ([1]; E. coli) | Organism, effect (morphology, biofilm and growth disruption) ([1]; S. epidermidis) | Organism, effect (morphology, biofilm and growth disruption) ([1]; E. faecalis) | Target(s) (microorganism bound by the targeting peptide) [2] | Organism, effect (morphology, biofilm and growth disruption) ([1]; C. albicans)
1 | PF-566 (EAQQVTQQLGADFNAITTPTATKV; Peptide with targeting and/or antimicrobial activity) | B. subtilis (C) | C. jeikeium (C) | C. jejuni (D) | M. luteus (D) | MRSA (M) | S. pneumoniae (D) | P. mirabilis; also recorded: S. pneumoniae | G B | – | – | – | – | –
2 | PF-567 (QQRVKAVDASLSQVSTQVSGAVASA; Peptide with targeting and/or antimicrobial activity) | – | C. jeikeium (C) | C. jejuni (D) | M. luteus (C) | MRSA (D) | S. pneumoniae (D) | S. epidermidis and P. aeruginosa and C. albicans and MRSA and S. pneumoniae and C. jeikeium | G B | – | – | – | – | –
3 | PF-569 (KSKISEYTEKEFLEFVEDIYTNNK; Peptide with targeting and/or antimicrobial activity) | B. subtilis (D) | – | – | – | – | – | M. luteus; also recorded: P. mirabilis; also recorded: S. pneumoniae; also recorded: E. faecalis; also recorded: C. jeikeium | G B | – | – | – | – | –
4 | PF-572 (WRASKGLPGFKAG; Peptide with targeting and/or antimicrobial activity) | B. subtilis (D) | – | – | – | – | S. pneumoniae (R) | S. epidermidis; also recorded: M. luteus; also recorded: E. coli; also recorded: S. pneumoniae; also recorded: C. jeikeium | G B | – | – | – | – | –
5 | PF-573 (EKKLIVKLIDSIGKSHEEIVGAG; Peptide with targeting and/or antimicrobial activity) | – | – | – | – | – | S. pneumoniae (C) | S. epidermidis; also recorded: S. pneumoniae | G B | – | – | – | – | –
6 | PF-576 (AYSGELPEPLVRKMSKEQVRSVMGK; Peptide with targeting and/or antimicrobial activity) | – | – | C. jejuni (C) | – | MRSA (R) | S. pneumoniae (C) | M. luteus; also recorded: P. mirabilis; also recorded: E. coli; also recorded: P. aeruginosa; also recorded: C. albicans; also recorded: S. pneumoniae | G B | E. coli (A) | S. epidermidis (A) | – | – | –
7 | PF-587 (ASGKYQSYLLNVYVDSKKDRLDIFDKLKAKAKFVL; Peptide with targeting and/or antimicrobial activity) | – | – | – | – | – | S. pneumoniae (C) | S. epidermidis and M. luteus and E. coli and MRSA and S. pneumoniae and E. faecalis and C. jeikeium | G B | – | – | – | – | –
8 | PF-589 (APLRIDEIRNSNVIDEVLDCAPKKQEHFFVVPKIIE; Peptide with targeting and/or antimicrobial activity) | – | – | – | – | MRSA (M) | S. pneumoniae (C) | S. epidermidis and C. albicans and MRSA and S. pneumoniae | G B | – | – | – | – | –
9 | PF-614 (GLDIYA; Peptide with targeting and/or antimicrobial activity) | – | – | C. jejuni (R) | – | – | S. pneumoniae (R) | – | G B | – | S. epidermidis (M) | E. faecalis (A) | S. epidermidis; also recorded: E. coli; also recorded: C. jeikeium | –
10 | PF-616 (chain 1 IVFVVTKEKK; chain 2 IVFVVTKEKK; Peptide with targeting and/or antimicrobial activity) | – | – | – | – | – | – | – | G B | – | S. epidermidis (R) | E. faecalis (A) | C. jeikeium | –
11 | PF-617 (chain 1 PMNAAEPE; chain 2 PMNAAEPE; Peptide with targeting and/or antimicrobial activity) | – | – | – | – | – | S. pneumoniae (I) | – | G B | – | – | E. faecalis (H) | P. aeruginosa; also recorded: C. albicans | C. albicans (H)
12 | PF-621 (chain 1 PPSSFLV; chain 2 PPSSFLV; Peptide with targeting and/or antimicrobial activity) | – | – | – | – | – | S. pneumoniae (I) | – | G B | – | – | E. faecalis (H) | S. epidermidis; also recorded: C. albicans | –
13 | PF-622 (chain 1 TREDVFSVRLINNIVNKQA; chain 2 TREDVFSVRLINNIVNKQA; Peptide with targeting and/or antimicrobial activity) | – | C. jeikeium (D) | – | – | MRSA (D) | S. pneumoniae (M) | – | G B | – | S. epidermidis (D) | E. faecalis (D) | S. epidermidis; also recorded: P. aeruginosa; also recorded: C. albicans; also recorded: S. pneumoniae; also recorded: E. faecalis; also recorded: C. jeikeium | –
14 | PF-623 (chain 1 VLFAVYLGALDWLFSWLTQKM; chain 2 VLFAVYLGALDWLFSWLTQKM; Peptide with targeting and/or antimicrobial activity) | – | C. jeikeium (R) | – | – | MRSA (D) | S. pneumoniae (D) | – | G B | – | S. epidermidis (M) | E. faecalis (D) | S. epidermidis and P. aeruginosa and MRSA and S. pneumoniae and E. faecalis and C. jeikeium | –
15 | PF-625 (chain 1 SDSTNNARTRKKARDVTTKDIDK; chain 2 SDSTNNARTRKKARDVTTKDIDK; Peptide with targeting and/or antimicrobial activity) | – | – | – | – | – | S. pneumoniae (H) | – | G B | – | – | – | S. epidermidis; also recorded: M. luteus; also recorded: S. pneumoniae; also recorded: C. jeikeium | –
16 | PF-626 (chain 1 KYDFDDFEPEEA; chain 2 KYDFDDFEPEEA; Peptide with targeting and/or antimicrobial activity) | – | – | – | – | – | S. pneumoniae (H) | – | G B | – | – | – | S. epidermidis and M. luteus and E. coli and C. albicans and MRSA and S. pneumoniae and E. faecalis and C. jeikeium | –
17 | PF-627 (chain 1 INDLLSYFTLHEK; chain 2 INDLLSYFTLHEK; Peptide with targeting and/or antimicrobial activity) | – | – | – | – | MRSA (R) | S. pneumoniae (I) | – | G B | – | S. epidermidis (H) | E. faecalis (H) | S. epidermidis and P. aeruginosa and MRSA and S. pneumoniae and E. faecalis and C. jeikeium | C. albicans (B)
